This note sets out measurements from US8580794B2 (AbbVie Inc., priority 2009, dated 2013).

Read-outs that look alike come from different tables or passages of the source. Where only a bound is given, the exact number is not on record here.

One test concerns the target GST-Bc1-2 (Homo sapiens, UniProt P10415). As to the kind of experiment: Time Resolved-Fluorescence Resonance Energy Transfer (TR-FRET) Bcl-2 binding assay with F-Bak peptide probe. (TR-FRET usually uses a lanthanide donor and a delayed reading to cut background.)
For a further test, the system named is RS4;11 cells. As to the kind of experiment: RS4;11 Cell Viability Assay (CellTiter Glo).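 Note: RS4,11 acute lymphoblastic leukemia cells, viability as percent of untreated control cells, EC50 for loss of viable cells.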 The note with it: Homo sapiens, RS4-11, 48 h, 50,000 cells per well, 10% human serum. The class given is cell-based. On the technique in general: ATP-based viability assays read luminescence as a measure of living cells.
The mark [1] stands for this setting: GST-Bcl-2 1 nM, F-Bak probe 100 nM, Tb-anti-GST 1 nM, '<' = below limit of detection, read-out: TR-FRET Bcl-2 Binding Ki.

Chain of GST-Bc1-2 (P10415 whole entry): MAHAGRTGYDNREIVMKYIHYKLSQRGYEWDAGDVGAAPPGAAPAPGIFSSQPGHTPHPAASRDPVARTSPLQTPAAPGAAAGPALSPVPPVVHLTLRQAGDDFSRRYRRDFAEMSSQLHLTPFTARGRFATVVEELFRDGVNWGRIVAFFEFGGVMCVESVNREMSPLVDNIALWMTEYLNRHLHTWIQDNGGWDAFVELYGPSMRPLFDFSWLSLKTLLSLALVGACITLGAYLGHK
Protocol for RS4;11 cells: The acute lymphoblastic leukemia (ALL) cell line RS4;11 was used as the primary human cell line to assess the cellular activity of Bcl-2 selective agents in vitro and their efficacy in vivo.
Cell cytotoxicity EC50 values were assessed using CellTiter Glo (Promega) according to the manufacturer's recommendations. The EC50 values were determined as a percentage of viable cells following treatment compared to the untreated control cells.

`CC1(C)CCC(CN2CCN(c3ccc(C(=O)NS(=O)(=O)c4cnc(OCC5CCC6(CC5)CNC(=O)O6)c(Cl)c4)c(Oc4cnc5[nH]ccc5c4)c3)CC2)=C(c2ccc(Cl)cc2)C1` (single isomer, unassigned) [Example 396, N-[(5-chloro-6-{[(5r,8r)-2-oxo-1-oxa-3-azaspiro[4.5]dec-8-yl]methoxy}pyridin-3-yl)sulfonyl]-4-(4-{[2-(4-chlorophenyl)-4,4-dimethylcyclohex-1-en-1-yl]methyl}piperazin-1-yl)-2-(1H-pyrrolo[2,3-b]pyridin-5-yloxy)benzamide]: the Ki (in general, the dissociation constant of the complex between target and ligand, obtained from inhibition or displacement) on GST-Bc1-2 (setting [1]) was 0.014 nM. It took 84.1 nM to reach a half-maximal effect in the test on RS4;11 cells (EC50).

Take `CC1(C)CCC(CN2CCN(c3ccc(C(=O)NS(=O)(=O)c4ccc(OC[C@H]5CC[C@H](O)CC5)c([N+](=O)[O-])c4)c(Oc4cnc5[nH]ccc5c4)c3)CC2)=C(c2ccc(Cl)cc2)C1` [Example 196, Trans-4-(4-{[2-(4-chlorophenyl)-4,4-dimethylcyclohex-1-en-1-yl]methyl}piperazin-1-yl)-N-({4-[(4-hydroxycyclohexyl)methoxy]-3-nitrophenyl}sulfonyl)-2-(1H-pyrrolo[2,3-b]pyridin-5-yloxy)benzamide]: the EC50 (as a rule, the concentration giving half of the maximal effect) with RS4;11 cells came to 1.72 nM.

In turn, `CC1(C)CCC(CN2CCN(c3ccc(C(=O)NS(=O)(=O)c4ccc(NCC5CCC(C)(O)CC5)c([N+](=O)[O-])c4)c(Oc4cnc5[nH]ccc5c4)c3)CC2)=C(c2ccc(Cl)cc2)C1` (stereo not drawn) [Example 337, 4-(4-{[2-(4-chlorophenyl)-4,4-dimethylcyclohex-1-en-1-yl]methyl}piperazin-1-yl)-N-[(4-{[(trans-4-hydroxy-4-methylcyclohexyl)methyl]amino}-3-nitrophenyl)sulfonyl]-2-(1H-pyrrolo[2,3-b]pyridin-5-yloxy)benzamide] registered an EC50 in the test with RS4;11 cells of 1.76 nM.

As for `CC1(O)CCC(COc2ncc(S(=O)(=O)NC(=O)c3ccc(N4CCN(CC5=C(c6ccc(Cl)cc6)CC6(CC5)CC6)CC4)cc3Oc3cnc4[nH]ccc4c3)cc2Cl)CC1` (stereo not drawn) [Example 341, N-({5-chloro-6-[(trans-4-hydroxy-4-methylcyclohexyl)methoxy]pyridin-3-yl}sulfonyl)-4-(4-{[5-(4-chlorophenyl)spiro[2.5]oct-5-en-6-yl]methyl}piperazin-1-yl)-2-(1H-pyrrolo[2,3-b]pyridin-5-yloxy)benzamide], in the test with RS4;11 cells, the EC50 came to 31.7 nM.

For `CC1(C)CCC(CN2CCN(c3ccc(C(=O)NS(=O)(=O)c4ccc(OCC5(F)CCN(C6COC6)CC5)c(C#N)c4)c(Oc4cnc5[nH]ccc5c4)c3)CC2)=C(c2ccc(Cl)cc2)C1` [Example 357, 4-(4-{[2-(4-chlorophenyl)-4,4-dimethylcyclohex-1-en-1-yl]methyl}piperazin-1-yl)-N-[(3-cyano-4-{[4-fluoro-1-(oxetan-3-yl)piperidin-4-yl]methoxy}phenyl)sulfonyl]-2-(1H-pyrrolo[2,3-b]pyridin-5-yloxy)benzamide], the Ki at GST-Bc1-2 (setting [1]) was under 0.01 nM.

On to `COCC1(C)CCC(c2ccc(Cl)cc2)=C(CN2CCN(c3ccc(C(=O)NS(=O)(=O)c4ccc(NCC5CCOCC5)c([N+](=O)[O-])c4)c(Oc4cnc5[nH]ccc5c4)c3)CC2)C1` (stereo not shown) [Example 360, 4-(4-{[2-(4-chlorophenyl)-5-(methoxymethyl)-5-methylcyclohex-1-en-1-yl]methyl}piperazin-1-yl)-N-({3-nitro-4-[(tetrahydro-2H-pyran-4-ylmethyl)amino]phenyl}sulfonyl)-2-(1H-pyrrolo[2,3-b]pyridin-5-yloxy)benzamide], for which, on GST-Bc1-2 (setting [1]), the Ki was under 0.01 nM.

On to `CC1(C)CCC(CN2CCN(c3ccc(C(=O)NS(=O)(=O)c4ccc(NC[C@H]5CN(C6COC6)CCO5)c([N+](=O)[O-])c4)c(Oc4cnc5[nH]ccc5c4)c3)CC2)=C(c2ccc(Cl)cc2)C1` [Example 361, 4-(4-{[2-(4-chlorophenyl)-4,4-dimethylcyclohex-1-en-1-yl]methyl}piperazin-1-yl)-N-{[3-nitro-4-({[(2S)-4-(oxetan-3-yl)morpholin-2-yl]methyl}amino)phenyl]sulfonyl}-2-(1H-pyrrolo[2,3-b]pyridin-5-yloxy)benzamide], for which the Ki at GST-Bc1-2 (setting [1]) was under 0.01 nM.

For `CC1(C)CCC(CN2CCN(c3ccc(C(=O)NS(=O)(=O)c4ccc(OCC5CCC(C)(O)CC5)c(Cl)c4)c(Oc4cnc5[nH]ccc5c4)c3)CC2)=C(c2ccc(Cl)cc2)C1` (stereo not drawn) [Example 362, N-({3-chloro-4-[(trans-4-hydroxy-4-methylcyclohexyl)methoxy]phenyl}sulfonyl)-4-(4-{[2-(4-chlorophenyl)-4,4-dimethylcyclohex-1-en-1-yl]methyl}piperazin-1-yl)-2-(1H-pyrrolo[2,3-b]pyridin-5-yloxy)benzamide], the EC50 with RS4;11 cells was 31.7 nM. This lies in the double-digit nanomolar range.

Take `CC1(C)CCC(CN2CCN(c3ccc(C(=O)NS(=O)(=O)c4ccc(OCC5(F)CCC(N(CCC#N)C6CC6)CC5)c([N+](=O)[O-])c4)c(Oc4cnc5[nH]ccc5c4)c3)CC2)=C(c2ccc(Cl)cc2)C1` (stereo not shown) [Example 363, 4-(4-{[2-(4-chlorophenyl)-4,4-dimethylcyclohex-1-en-1-yl]methyl}piperazin-1-yl)-N-{[4-({4-[(2-cyanoethyl)(cyclopropyl)amino]-1-fluorocyclohexyl}methoxy)-3-nitrophenyl]sulfonyl}-2-(1H-pyrrolo[2,3-b]pyridin-5-yloxy)benzamide]: the Ki at GST-Bc1-2 (setting [1]) came out at 0.017 nM.

With `CC1(C)CCC(CN2CCN(c3ccc(C(=O)NS(=O)(=O)c4cnc(NCC5CCOCC5)c([N+](=O)[O-])c4)c(Oc4cnc5[nH]ccc5c4)c3)CC2)=C(c2ccc(Cl)cc2)C1` [Example 364, 4-(4-{[2-(4-chlorophenyl)-4,4-dimethylcyclohex-1-en-1-yl]methyl}piperazin-1-yl)-N-({5-nitro-6-[(tetrahydro-2H-pyran-4-ylmethyl)amino]pyridin-3-yl}sulfonyl)-2-(1H-pyrrolo[2,3-b]pyridin-5-yloxy)benzamide], on GST-Bc1-2 (setting [1]), the Ki was under 0.01 nM.

`CC1(C)CCC(CN2CCN(c3ccc(C(=O)NS(=O)(=O)c4ccc(NCC5CCC6(CC5)COC6)c([N+](=O)[O-])c4)c(Oc4cnc5[nH]ccc5c4)c3)CC2)=C(c2ccc(Cl)cc2)C1` [Example 365, 4-(4-{[2-(4-chlorophenyl)-4,4-dimethylcyclohex-1-en-1-yl]methyl}piperazin-1-yl)-N-({3-nitro-4-[(2-oxaspiro[3.5]non-7-ylmethyl)amino]phenyl}sulfonyl)-2-(1H-pyrrolo[2,3-b]pyridin-5-yloxy)benzamide]: the Ki on GST-Bc1-2 (setting [1]) is under 0.01 nM.

Take `CC1(C)CCC(CN2CCN(c3ccc(C(=O)NS(=O)(=O)c4ccc(NCC5CCC(C)(C#N)CC5)c([N+](=O)[O-])c4)c(Oc4cnc5[nH]ccc5c4)c3)CC2)=C(c2ccc(Cl)cc2)C1` (stereo not shown) [Example 366, 4-(4-{[2-(4-chlorophenyl)-4,4-dimethylcyclohex-1-en-1-yl]methyl}piperazin-1-yl)-N-[(4-{[(4-cyano-4-methylcyclohexyl)methyl]amino}-3-nitrophenyl)sulfonyl]-2-(1H-pyrrolo[2,3-b]pyridin-5-yloxy)benzamide]: the Ki on GST-Bc1-2 (setting [1]) came out at 0.024 nM.

In the test with RS4;11 cells, `[2H]C1([2H])N(CC2=C(c3ccc(Cl)cc3)CC(C)(C)CC2)C([2H])([2H])C([2H])([2H])N(c2ccc(C(=O)NS(=O)(=O)c3ccc(NCC4CCOCC4)c([N+](=O)[O-])c3)c(Oc3cnc4[nH]ccc4c3)c2)C1([2H])[2H]` [Example 369, 4-[4-{[2-(4-chlorophenyl)-4,4-dimethylcyclohex-1-en-1-yl]methyl}(2H8)piperazin-1-yl]-N-({3-nitro-4-[(tetrahydro-2H-pyran-4-ylmethyl)amino]phenyl}sulfonyl)-2-(1H-pyrrolo[2,3-b]pyridin-5-yloxy)benzamide] showed an EC50 of 8 nM.

For `CC1(C)CCC(CN2CCN(c3ccc(C(=O)NS(=O)(=O)c4cnc5c(c4)nnn5CC4CCOCC4)c(Oc4cnc5[nH]ccc5c4)c3)CC2)=C(c2ccc(Cl)cc2)C1` [Example 370, 4-(4-{[2-(4-chlorophenyl)-4,4-dimethylcyclohex-1-en-1-yl]methyl}piperazin-1-yl)-2-(1H-pyrrolo[2,3-b]pyridin-5-yloxy)-N-{[3-(tetrahydro-2H-pyran-4-ylmethyl)-3H-[1,2,3]triazolo[4,5-b]pyridin-6-yl]sulfonyl}benzamide], the Ki at GST-Bc1-2 (setting [1]) is 0.285 nM.

Regarding `CC1(C)CCC(CN2CCN(c3ccc(C(=O)NS(=O)(=O)c4ccc(NC(=O)N5CCOCC5)c([N+](=O)[O-])c4)c(Oc4cnc5[nH]ccc5c4)c3)CC2)=C(c2ccc(Cl)cc2)C1` [Example 373, N-(4-{[4-(4-{[2-(4-chlorophenyl)-4,4-dimethylcyclohex-1-en-1-yl]methyl}piperazin-1-yl)-2-(1H-pyrrolo[2,3-b]pyridin-5-yloxy)benzoyl]sulfamoyl}-2-nitrophenyl)morpholine-4-carboxamide], at GST-Bc1-2 (TR-FRET Bcl-2 Binding Ki), the Ki was under 0.001 nM.

As for `COCC1CCC(CNc2ccc(S(=O)(=O)NC(=O)c3ccc(N4CCN(CC5=C(c6ccc(Cl)cc6)CC(C)(C)CC5)CC4)cc3Oc3cnc4[nH]ccc4c3)cc2[N+](=O)[O-])CC1` (stereo not shown) [Example 374, 4-(4-{[2-(4-chlorophenyl)-4,4-dimethylcyclohex-1-en-1-yl]methyl}piperazin-1-yl)-N-{[4-({[4-(methoxymethyl)cyclohexyl]methyl}amino)-3-nitrophenyl]sulfonyl}-2-(1H-pyrrolo[2,3-b]pyridin-5-yloxy)benzamide], the Ki at GST-Bc1-2 (setting [1]) was under 0.001 nM.

`CC1(C)CCC(CN2CCN(c3ccc(C(=O)NS(=O)(=O)c4cnc(OCC5CCN(c6nccs6)CC5)c(Cl)c4)c(Oc4cnc5[nH]ccc5c4)c3)CC2)=C(c2ccc(Cl)cc2)C1` [Example 375, 4-(4-{[2-(4-chlorophenyl)-4,4-dimethylcyclohex-1-en-1-yl]methyl}piperazin-1-yl)-N-[(5-chloro-6-{[1-(1,3-thiazol-2-yl)piperidin-4-yl]methoxy}pyridin-3-yl)sulfonyl]-2-(1H-pyrrolo[2,3-b]pyridin-5-yloxy)benzamide]: the Ki on GST-Bc1-2 (setting [1]) is 0.11 nM.

In the case of `COC1(C)CCC(c2ccc(Cl)cc2)=C(CN2CCN(c3ccc(C(=O)NS(=O)(=O)c4ccc(NCC5CCOCC5)c([N+](=O)[O-])c4)c(Oc4cnc5[nH]ccc5c4)c3)CC2)C1` (stereo not shown) [Example 378, 4-(4-{[2-(4-chlorophenyl)-5-methoxy-5-methylcyclohex-1-en-1-yl]methyl}piperazin-1-yl)-N-({3-nitro-4-[(tetrahydro-2H-pyran-4-ylmethyl)amino]phenyl}sulfonyl)-2-(1H-pyrrolo[2,3-b]pyridin-5-yloxy)benzamide], the Ki on GST-Bc1-2 (setting [1]) is under 0.001 nM.
